± gives the expanded uncertainty stated by the source.
Settings: Liquid

Structure (SMILES) | vapor or sublimation pressure (329 K) [kPa] | vapor or sublimation pressure (337.42 K) [kPa]
CC(C)=O [acetone] | 100 ± 1.3 | –
CO [methanol] | – | 100 ± 1.3

From the NIST ThermoML archive (doi:10.1021/je200305n)
